{"source": "PubChem BioAssay AID1259407", "about": "(Chemical Carcinogenesis Research Information System (CCRIS), 2018)", "system": "CCRIS mutagenicity, Ames/micronucleus/aberration tests", "assay": "CCRIS mutagenicity studies", "key": {"[1]": {"details": "Test System: AMES SALMONELLA TYPHIMURIUM, Strain/Indicator: TA1535, Metabolic Activation: NONE, Method: PREINCUBATION"}, "[2]": {"details": "Test System: AMES SALMONELLA TYPHIMURIUM, Strain/Indicator: TA1537, Metabolic Activation: NONE, Method: PREINCUBATION"}, "[3]": {"details": "Test System: AMES SALMONELLA TYPHIMURIUM, Strain/Indicator: TA98, Metabolic Activation: NONE, Method: STANDARD PLATE"}, "[4]": {"details": "Test System: AMES SALMONELLA TYPHIMURIUM, Strain/Indicator: TA100, Metabolic Activation: NONE, Method: STANDARD PLATE"}}, "note": "The source made the active and inactive calls. How the calls were made is not given here."}
{"smiles": "C[n+]1c2cc(N)ccc2cc2ccc(N)cc21", "values": [{"measurement": "mutagenic call", "setting": "[1]", "result": "inactive; negative"}, {"measurement": "mutagenic call", "setting": "Test System: AMES SALMONELLA TYPHIMURIUM, Strain/Indicator: TA1535, Metabolic Activation: RAT, LIVER, S-9, TETRACHLOROBIPHENYL, Method: PREINCUBATION", "result": "inactive; negative"}, {"measurement": "mutagenic call", "setting": "[2]", "result": "active; positive"}, {"measurement": "mutagenic call", "setting": "Test System: AMES SALMONELLA TYPHIMURIUM, Strain/Indicator: TA1537, Metabolic Activation: RAT, LIVER, S-9, TETRACHLOROBIPHENYL, Method: PREINCUBATION", "result": "active; positive"}, {"measurement": "mutagenic call", "setting": "Test System: AMES SALMONELLA TYPHIMURIUM, Strain/Indicator: TA1538, Metabolic Activation: NONE, Method: PREINCUBATION", "result": "inactive; negative"}, {"measurement": "mutagenic call", "setting": "Test System: AMES SALMONELLA TYPHIMURIUM, Strain/Indicator: TA1538, Metabolic Activation: RAT, LIVER, S-9, TETRACHLOROBIPHENYL, Method: PREINCUBATION", "result": "active; positive"}, {"measurement": "mutagenic call", "setting": "Test System: AMES SALMONELLA TYPHIMURIUM, Strain/Indicator: TA1977, Metabolic Activation: NONE, Method: PREINCUBATION", "result": "active; positive"}, {"measurement": "mutagenic call", "setting": "Test System: AMES SALMONELLA TYPHIMURIUM, Strain/Indicator: TA1977, Metabolic Activation: RAT, LIVER, S-9, TETRACHLOROBIPHENYL, Method: PREINCUBATION", "result": "active; positive"}, {"measurement": "mutagenic call", "setting": "Test System: AMES SALMONELLA TYPHIMURIUM, Strain/Indicator: TA1978, Metabolic Activation: NONE, Method: PREINCUBATION", "result": "inactive; negative"}, {"measurement": "mutagenic call", "setting": "Test System: AMES SALMONELLA TYPHIMURIUM, Strain/Indicator: TA1978, Metabolic Activation: RAT, LIVER, S-9, TETRACHLOROBIPHENYL, Method: PREINCUBATION", "result": "inactive; negative"}]}
{"smiles": "CCOP(=S)(OCC(C)C)SCCl", "note": "(configuration not stated)", "values": [{"measurement": "mutagenic call", "setting": "Test System: AMES SALMONELLA TYPHIMURIUM, Strain/Indicator: TA98, Metabolic Activation: NONE", "result": "inactive; negative"}, {"measurement": "mutagenic call", "setting": "[3]", "result": "inactive; negative"}, {"measurement": "mutagenic call", "setting": "Test System: AMES SALMONELLA TYPHIMURIUM, Strain/Indicator: TA98, Metabolic Activation: RAT, LIVER, S-9, SODIUM PHENOBARBITAL, Method: STANDARD PLATE", "result": "inactive; negative"}, {"measurement": "mutagenic call", "setting": "Test System: AMES SALMONELLA TYPHIMURIUM, Strain/Indicator: TA98, Metabolic Activation: S-9", "result": "inactive; negative"}, {"measurement": "mutagenic call", "setting": "Test System: AMES SALMONELLA TYPHIMURIUM, Strain/Indicator: TA100, Metabolic Activation: NONE", "result": "inactive; negative"}, {"measurement": "mutagenic call", "setting": "[4]", "result": "inactive; negative"}, {"measurement": "mutagenic call", "setting": "Test System: AMES SALMONELLA TYPHIMURIUM, Strain/Indicator: TA100, Metabolic Activation: RAT, LIVER, S-9, SODIUM PHENOBARBITAL, Method: STANDARD PLATE", "result": "inactive; negative"}, {"measurement": "mutagenic call", "setting": "Test System: AMES SALMONELLA TYPHIMURIUM, Strain/Indicator: TA100, Metabolic Activation: S-9", "result": "inactive; negative"}, {"measurement": "mutagenic call", "setting": "Test System: E. COLI, Strain/Indicator: WP2, Metabolic Activation: NONE", "result": "inactive; negative"}, {"measurement": "mutagenic call", "setting": "Test System: E. COLI, Strain/Indicator: WP2, Metabolic Activation: RAT, LIVER, S-9, SODIUM PHENOBARBITAL, Method: STANDARD PLATE", "result": "inactive; negative"}, {"measurement": "mutagenic call", "setting": "Test System: E. COLI, Strain/Indicator: WP2, Metabolic Activation: S-9", "result": "inactive; negative"}, {"measurement": "mutagenic call", "setting": "Test System: E. COLI, Strain/Indicator: WP2 UVRA, Metabolic Activation: NONE", "result": "inactive; negative"}, {"measurement": "mutagenic call", "setting": "Test System: E. COLI, Strain/Indicator: WP2 UVRA, Metabolic Activation: RAT, LIVER, S-9, SODIUM PHENOBARBITAL, Method: STANDARD PLATE", "result": "inactive; negative"}, {"measurement": "mutagenic call", "setting": "Test System: E. COLI, Strain/Indicator: WP2 UVRA, Metabolic Activation: S-9", "result": "inactive; negative"}]}
{"smiles": "CCCCCCCCCCCCCCCC(=O)O", "values": [{"measurement": "mutagenic call", "setting": "Test System: AMES SALMONELLA TYPHIMURIUM, Strain/Indicator: TA98, Metabolic Activation: NONE, Method: PREINCUBATION", "result": "inactive; negative"}, {"measurement": "mutagenic call", "setting": "Test System: AMES SALMONELLA TYPHIMURIUM, Strain/Indicator: TA98, Metabolic Activation: RAT LIVER S-9, PHENOBARBITAL AND BETA-NAPHTHOFLAVONE, Method: PREINCUBATION", "result": "inactive; negative"}, {"measurement": "mutagenic call", "setting": "Test System: AMES SALMONELLA TYPHIMURIUM, Strain/Indicator: TA100, Metabolic Activation: NONE, Method: PREINCUBATION", "result": "inactive; negative"}, {"measurement": "mutagenic call", "setting": "Test System: AMES SALMONELLA TYPHIMURIUM, Strain/Indicator: TA100, Metabolic Activation: RAT LIVER S-9, PHENOBARBITAL AND BETA-NAPHTHOFLAVONE, Method: PREINCUBATION", "result": "inactive; negative"}, {"measurement": "mutagenic call", "setting": "[1]", "result": "inactive; negative"}, {"measurement": "mutagenic call", "setting": "Test System: AMES SALMONELLA TYPHIMURIUM, Strain/Indicator: TA1535, Metabolic Activation: RAT LIVER S-9, PHENOBARBITAL AND BETA-NAPHTHOFLAVONE, Method: PREINCUBATION", "result": "inactive; negative"}, {"measurement": "mutagenic call", "setting": "[2]", "result": "inactive; negative"}, {"measurement": "mutagenic call", "setting": "Test System: AMES SALMONELLA TYPHIMURIUM, Strain/Indicator: TA1537, Metabolic Activation: RAT LIVER S-9, PHENOBARBITAL AND BETA-NAPHTHOFLAVONE, Method: PREINCUBATION", "result": "inactive; negative"}, {"measurement": "mutagenic call", "setting": "Test System: E.COLI, Strain/Indicator: WP2UVRA/PKM101, Metabolic Activation: NONE, Method: PREINCUBATION", "result": "inactive; negative"}, {"measurement": "mutagenic call", "setting": "Test System: E.COLI, Strain/Indicator: WP2UVRA/PKM101, Metabolic Activation: RAT LIVER S-9, PHENOBARBITAL AND BETA-NAPHTHOFLAVONE, Method: PREINCUBATION", "result": "inactive; negative"}]}
{"smiles": "CC1Cc2cccc3c2N1C(C)C3.CC1Cc2cccc3c2N1C(C)C3.[Cl-].[Cl-].[Cl-].[Cl-].[Pt+2].[Pt+2]", "note": "(configuration not stated)", "values": [{"measurement": "mutagenic call", "setting": "Test System: AMES SALMONELLA TYPHIMURIUM, Strain/Indicator: TA92, Metabolic Activation: NONE, Method: STANDARD PLATE", "result": "inactive; negative"}, {"measurement": "mutagenic call", "setting": "[3]", "result": "inactive; negative"}, {"measurement": "mutagenic call", "setting": "[4]", "result": "inactive; negative"}, {"measurement": "mutagenic call", "setting": "Test System: AMES SALMONELLA TYPHIMURIUM, Strain/Indicator: TA2410, Metabolic Activation: NONE, Method: STANDARD PLATE", "result": "inactive; negative"}, {"measurement": "mutagenic call", "setting": "Test System: E. COLI, Strain/Indicator: TM6, Metabolic Activation: NONE, Method: STANDARD PLATE", "result": "inactive; negative"}, {"measurement": "mutagenic call", "setting": "Test System: E. COLI, Strain/Indicator: TM9, Metabolic Activation: NONE, Method: STANDARD PLATE", "result": "inactive; negative"}]}
{"smiles": "C[n+]1ccn(CCC[n+]2ccc(C(N)=O)cc2)c1/C=N/O", "values": [{"measurement": "mutagenic call", "setting": "Test System: AMES SALMONELLA TYPHIMURIUM, Strain/Indicator: TA97, Metabolic Activation: NONE, Method: STANDARD PLATE", "result": "inactive; negative"}, {"measurement": "mutagenic call", "setting": "Test System: AMES SALMONELLA TYPHIMURIUM, Strain/Indicator: TA97, Metabolic Activation: S-9, Method: STANDARD PLATE", "result": "inactive; negative"}, {"measurement": "mutagenic call", "setting": "[4]", "result": "inactive; negative"}, {"measurement": "mutagenic call", "setting": "Test System: AMES SALMONELLA TYPHIMURIUM, Strain/Indicator: TA100, Metabolic Activation: S-9, Method: STANDARD PLATE", "result": "inactive; negative"}, {"measurement": "mutagenic call", "setting": "Test System: AMES SALMONELLA TYPHIMURIUM, Strain/Indicator: TA104, Metabolic Activation: NONE, Method: STANDARD PLATE", "result": "inactive; negative"}, {"measurement": "mutagenic call", "setting": "Test System: AMES SALMONELLA TYPHIMURIUM, Strain/Indicator: TA104, Metabolic Activation: S-9, Method: STANDARD PLATE", "result": "inactive; negative"}, {"measurement": "mutagenic call", "setting": "Test System: AMES SALMONELLA TYPHIMURIUM, Strain/Indicator: TA1537, Metabolic Activation: NONE, Method: STANDARD PLATE", "result": "inactive; negative"}, {"measurement": "mutagenic call", "setting": "Test System: AMES SALMONELLA TYPHIMURIUM, Strain/Indicator: TA1537, Metabolic Activation: S-9, Method: STANDARD PLATE", "result": "inactive; negative"}, {"measurement": "mutagenic call", "setting": "Test System: AMES SALMONELLA TYPHIMURIUM, Strain/Indicator: TA1538, Metabolic Activation: NONE, Method: STANDARD PLATE", "result": "inactive; negative"}, {"measurement": "mutagenic call", "setting": "Test System: AMES SALMONELLA TYPHIMURIUM, Strain/Indicator: TA1538, Metabolic Activation: S-9, Method: STANDARD PLATE", "result": "inactive; negative"}]}
{"smiles": "Oc1ccc2ccccc2c1N=Nc1ccc(N=Nc2ccccc2)cc1", "values": [{"measurement": "mutagenic call", "setting": "[3]", "result": "inactive; negative"}, {"measurement": "mutagenic call", "setting": "[4]", "result": "inactive; negative"}]}
